Reference: patent publication US8987273B2, “Substituted imidazo[1,2-B]pyridazines” (Bayer Intellectual Property GmbH, priority 2010, dated 2015)
Where a name gives a salt, the structure may show the parent alone.

What was measured:
[1] = target: His-tagged human recombinant kinase full-length Akt1 (Homo sapiens (Human), UniProt P31749); test: Akt1 kinase assay (TR-FRET); format: biochemical; conditions: 10 μM ATP; median
Text: Akt1 inhibitory activity of compounds of the present invention was quantified employing the Akt1 TR-FRET assay as described in the following paragraphs. His-tagged human recombinant kinase full-length Akt1 expressed in insect cells was purchased form Invitrogen (part number PV 3599). As substrate for the kinase reaction the biotinylated peptide biotin-Ahx-[…] (C-terminus in amide form) was used which can be purchased e.g. from the company Biosynthan GmbH (Berlin-Buch, Germany).
(§1) For the assay 50 nl of a 100 fold concentrated solution of the test compound in DMSO was pipetted into a black low volume 384 well microtiter plate (Greiner Bio-One, Frickenhausen, Germany), 2 μl of a solution of Akt1 in assay buffer [50 mM TRIS/HCl pH 7.5, 5 mM MgCl2, 1 mM dithiothreitol, 0.02% (v/v) Triton X-100 (Sigma)] were added and the mixture was incubated for 15 min at 22° C. to allow pre-binding of the test compounds to the enzyme before the start of the kinase reaction. Then the kinase reaction was started by the addition of 3 μl of a solution of adenosine-tri-phosphate (ATP, 16.7 μM=>final conc. in the 5 μl assay volume is 10 μM) and substrate (1.67 μM=>final conc. in the 5 μl assay volume is 1 μM) in assay buffer and the resulting mixture was incubated for a reaction time of 60 min at 22° C. The concentration of Akt1 in the assay was adjusted depending of the activity of the enzyme lot and was chosen appropriate to have the assay in the linear range, typical enzyme concentrations were in the range of about 0.05 ng/μl (final conc. in the 5 μl assay volume).
(§2) The reaction was stopped by the addition of 5 μl of a solution of HTRF detection reagents (200 nM streptavidine-XL665 [Cisbio] and 1.5 nM anti-phosho-Serine antibody [Millipore, cat. #35-001] and 0.75 nM LANCE Eu-W 1024 labeled anti-mouse IgG antibody [Perkin Elmer]) in an aqueous EDTA-solution (100 mM EDTA, 0.1% (w/v) bovine serum albumin in 50 mM HEPES/NaOH pH 7.5).
(§3) The resulting mixture was incubated 1 h at 22° C. to allow the binding of the biotinylated phosphorylated peptide to the streptavidine-XL665 and the antibodies. Subsequently the amount of phosphorylated substrate was evaluated by measurement of the resonance energy transfer from the anti-mouse-IgG-Eu-Chelate to the streptavidine-XL665. Therefore, the fluorescence emissions at 620 nm and 665 nm after excitation at 350 nm was measured in a HTRF reader, e.g. a Rubystar (BMG Labtechnologies, Offenburg, Germany) or a Viewlux (Perkin-Elmer). The ratio of the emissions at 665 nm and at […] was taken as the measure for the amount of phosphorylated substrate. The data were normalised (enzyme reaction without inhibitor=0% inhibition, all other assay components but no enzyme=100% inhibition).

[2] = target: His-tagged human recombinant kinase full-length Akt2 (Homo sapiens (Human), UniProt P31751); test: Akt2 kinase assay (TR-FRET); format: biochemical; conditions: 10 μM ATP; median
Text: Akt2 inhibitory activity of compounds of the present invention was quantified employing the Akt2 TR-FRET assay as described in the following paragraphs.
His-tagged human recombinant kinase full-length Akt2 expressed in insect cells and activated by PDK1 was purchased form Invitrogen (part number PV 3975). As substrate for the kinase reaction the biotinylated peptide biotin-Ahx-[…] (C-terminus in amide form) was used which can be purchased e.g. from the company Biosynthan GmbH (Berlin-Buch, Germany).
as §1, with “Akt2” for “Akt1”, “0.2” for “0.05”
as §2, with “0.1%/w/v\” for “0.1% (w/v)”
as §3, with “TR-FRET” for “HTRF”

[3] = test system: phospho-AKT at S473 in KPL4 breast tumour cell line; test: Cellular p-AKT1/2/3-S473 assay; format: cell-based; conditions: KPL4 cells, 2 hours treatment; median; read-out: pAKT-S743 median IC50
Method: The molecular mechanism of action was investigated in a set of experiments to assess the inhibition of the PI3K-AKT-mTOR pathway in responsive cell lines such as KPL4 breast tumour cell line (PIK3CAH1047R, HER2O/E and hormone independent). The phospho-substrates of PI3K-AKT-mTOR axis were used as the read-outs to reflect pathway inhibition. Cells were seeded at 60-80% confluency per well in 96-well cell culture plates. After overnight incubation at 37° C. 5% CO2, cells were treated with compounds and vehicle at 37° C. for 2 hours. […] All measurements where at least done in duplicates and confirmed by independent repetition.
Alternatively pAKT-S473 was measured using the “Akt Duplex” of the MULTI-SPOT® Assay System (Fa. Meso Scale Discovery, Cat# N41100B-1) following manufacturers instructions. Each assay used 20 μg of protein extract and measured total AKT and p-AKT content simultaneously in one well. All measurements where at least done in duplicates and confirmed by independent repetition. Values for P-AKT are expressed as percentage of P-AKT level compared to total-AKT content of the extracts.

KPL-4 cells = test: Tumor cell proliferation assay (CellTiter-Glo); format: cell-based; conditions: KPL4; 72 h drug exposure
Method: Compounds were tested in a cell-based assay that measures the capacity of the compounds to inhibit tumour cell proliferation following a 72 h drug exposure. Cell viability is determined using CellTiter-Glow® (CTG, Promega, cat# G757112/3). The CellTiter-Glo® Luminescent Cell Viability Assay is a homogeneous method to determine the number of viable cells in culture. Detection is based on using the luciferase reaction to measure the amount of ATP from viable cells. The amount of ATP in cells correlates with cell viability. Within minutes after a loss of membrane integrity, cells lose the ability to synthesize ATP, and endogenous ATPases destroy any remaining ATP; thus the levels of ATP fall precipitously.
Cells were plated at 3000-5000 cells/well (depending on the cell lines) in 90 μL growth medium on MTPs (Corning; #3603, black plate, clear flat bottom). For each cell line assayed, cells were plated onto a separate plate for determination of […] at t=0 hour and t=72 hour time points. Following overnight incubation at 37° C., chemiluminescence values for the t=0 samples were determined after adding 10 μl medium and 100 μl CTG solution according to manufacture protocol. Plates for the t=72 hour time points were treated with compounds diluted into growth medium at ten times final concentration added in 10 μL to the cell culture plate. Cells were then incubated for 72 hours at 37° C. Chemiluminescence values for the t=72 hour samples were determined. For data analysis, briefly, data from 24 h plate where used to reflect 100% inhibition of growth (“Ci”) and DMSO control for uninhibited growth (“C0”) and analyzed using MTS software package for IC50 and Hill coefficient. Experiments were controlled using a reference compound as standard.

His-tagged human recombinant kinase full-length Akt2, sequence (P31751 whole entry): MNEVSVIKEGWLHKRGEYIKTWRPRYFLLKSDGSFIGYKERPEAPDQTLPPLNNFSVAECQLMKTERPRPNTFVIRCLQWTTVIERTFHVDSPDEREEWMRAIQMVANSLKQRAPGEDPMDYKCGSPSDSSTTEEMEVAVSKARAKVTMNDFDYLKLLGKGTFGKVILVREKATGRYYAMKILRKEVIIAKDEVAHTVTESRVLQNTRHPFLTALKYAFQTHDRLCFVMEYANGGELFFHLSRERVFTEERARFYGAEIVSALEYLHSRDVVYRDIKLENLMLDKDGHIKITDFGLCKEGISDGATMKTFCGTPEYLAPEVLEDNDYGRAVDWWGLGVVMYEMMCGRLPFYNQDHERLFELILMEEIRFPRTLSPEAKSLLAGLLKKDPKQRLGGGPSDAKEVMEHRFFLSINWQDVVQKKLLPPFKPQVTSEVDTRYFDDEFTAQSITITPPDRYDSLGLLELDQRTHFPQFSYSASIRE
His-tagged human recombinant kinase full-length Akt1, sequence (P31749 whole entry): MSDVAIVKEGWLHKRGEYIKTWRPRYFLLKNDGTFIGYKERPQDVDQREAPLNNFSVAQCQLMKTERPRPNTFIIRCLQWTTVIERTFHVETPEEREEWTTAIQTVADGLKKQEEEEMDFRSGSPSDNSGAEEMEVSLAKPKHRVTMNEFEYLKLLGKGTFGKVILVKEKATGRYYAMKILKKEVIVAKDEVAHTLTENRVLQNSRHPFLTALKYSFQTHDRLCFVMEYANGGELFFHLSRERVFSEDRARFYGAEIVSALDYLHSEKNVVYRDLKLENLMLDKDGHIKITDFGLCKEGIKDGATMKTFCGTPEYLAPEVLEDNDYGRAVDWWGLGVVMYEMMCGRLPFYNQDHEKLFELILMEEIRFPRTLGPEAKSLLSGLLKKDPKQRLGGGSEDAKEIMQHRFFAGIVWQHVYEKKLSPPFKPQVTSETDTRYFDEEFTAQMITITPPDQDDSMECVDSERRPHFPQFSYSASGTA

CCOC(=O)c1cncc(-c2cnc3cc(-c4ccccc4)c(-c4ccc(C5(N)CCC5)cc4)nn23)c1 [Example 4-17, 5-{6-[4-(1-Amino-cyclobutyl)-phenyl]-7-phenyl-imidazo[1,2-b]pyridazin-3-yl}-nicotinic acid ethyl ester]
IC50 [1]: 0.007 µM | IC50 [2]: 0.11 µM | IC50 [3]: 0.06 µM | IC50 (KPL-4 cells): 6.2 µM

NC1(c2ccc(-c3nn4c(-c5cn[nH]c5)cnc4cc3-c3ccccc3)cc2)CCC1 [Example 4-12, 1-{4-[7-Phenyl-3-(1H-pyrazol-4-yl)-imidazo[1,2-b]pyridazin-6-yl]-phenyl}-cyclobutylamine]
IC50 [1]: 0.009 µM | IC50 [2]: 0.067 µM | IC50 [3]: 0.01 µM | IC50 (KPL-4 cells): 0.55 µM

Cc1nc2cc(-c3ccccc3)c(-c3ccc(C4(N)CCC4)cc3)nn2c1/C=C/C(N)=O [Example 10-0, (E)-3-{6-[4-(1-Amino-cyclobutyl)-phenyl]-2-methyl-7-phenyl-imidazo[1,2-b]pyridazin-3-yl}-acrylamide]
IC50 [1]: 18 µM | IC50 [2]: 20 µM | IC50 [3]: 10 µM | IC50 (KPL-4 cells): 2.49 µM

NC(=O)c1ccc(-c2cnc3cc(-c4ccccc4)c(-c4ccc(C5(N)CCC5)cc4)nn23)cc1 [Example 4-10, 4-{6-[4-(1-Amino-cyclobutyl)-phenyl]-7-phenyl-imidazo[1,2-b]pyridazin-3-yl}-benzamide hydrochloride]
IC50 [1]: 0.027 µM | IC50 [2]: 0.118 µM | IC50 [3]: 0.07 µM | IC50 (KPL-4 cells): 1.26 µM

Cc1cc(-c2c(C)nc3cc(-c4ccccc4)c(-c4ccc(C5(N)CCC5)cc4)nn23)[nH]n1 [Example 5-6, 1-{4-[2-Methyl-7-phenyl-3-(5-methyl-2H-pyrazol-3-yl)-imidazo[1,2-b]pyridazin-6-yl]-phenyl}-cyclobutylamine]
IC50 [1]: 14.9 µM | IC50 [2]: 17.2 µM | IC50 [3]: 10 µM | IC50 (KPL-4 cells): 9.22 µM

Cc1nc2cc(-c3ccccc3)c(-c3ccc(C4(N)CCC4)cc3)nn2c1-c1ccc(C(N)=O)cc1 [Example 5-4, 4-{6-[4-(1-Amino-cyclobutyl)-phenyl]-2-methyl-7-phenyl-imidazol[1,2-b]pyridazin-3-yl}-benzamide]
IC50 [1]: 12.1 µM | IC50 [2]: 4.82 µM | IC50 [3]: 10 µM | IC50 (KPL-4 cells): 2.38 µM

NC1(c2ccc(-c3nn4c(-c5ccc(S(N)(=O)=O)cc5)cnc4cc3-c3ccccc3)cc2)CCC1 [Example 4-7, 4-{6-[4-(1-Amino-cyclobutyl)-phenyl]-7-phenyl-imidazo[1,2-b]pyridazin-3-yl}-benzenesulfonamide hydrocloride]
IC50 [1]: 0.047 µM | IC50 [2]: 0.151 µM | IC50 [3]: 0.16 µM | IC50 (KPL-4 cells): 1.75 µM

Cc1nc2cc(-c3ccccc3)c(-c3ccc(C4(N)CCC4)cc3)nn2c1-c1ccc(F)c(CO)c1 [Example 5-1, (5-{6-[4-(1-Amino-cyclobutyl)-phenyl]-2-methyl-7-phenyl-imidazo[1,2-b]pyridazin-3-yl}-2-fluorophenyl)-methanol]
IC50 [1]: 10.1 µM | IC50 [2]: 16.7 µM | IC50 [3]: 10 µM | IC50 (KPL-4 cells): 2.11 µM

NC(=O)/C=C/c1cnc2cc(-c3ccccc3)c(-c3ccc(C4(N)CCC4)cc3)nn12 [Example 8-0, (E)-3-{6-[4-(1-Amino-cyclobutyl)-phenyl]-7-phenyl-imidazo[1,2-b]pyridazin-3-yl}-acrylamide]
IC50 [1]: 0.038 µM | IC50 [2]: 0.222 µM | IC50 [3]: 0.05 µM | IC50 (KPL-4 cells): 2.42 µM

COC(=O)/C=C/c1c(C)nc2cc(-c3ccccc3)c(-c3ccc(C4(N)CCC4)cc3)nn12 [Example 11-0, (E)-3-{6-[4-(1-Amino-cyclobutyl)-phenyl]-2-methyl-7-phenyl-imidazo[1,2-b]pyridazin-3-yl}-acrylic acid methyl ester]
IC50 [1]: 5.97 µM | IC50 [2]: 10.1 µM | IC50 [3]: 10 µM | IC50 (KPL-4 cells): 5.28 µM

NC1(c2ccc(-c3nn4c(Br)cnc4cc3-c3ccccc3)cc2)CCC1 [Example 4-8, 1-[4-(3-Bromo-7-phenyl-imidazo[1,2-b]pyridazin-6-yl)-phenyl]-cyclobutylamine hydrochloride]
IC50 [1]: 0.074 µM | IC50 [2]: 0.264 µM | IC50 [3]: 0.11 µM | IC50 (KPL-4 cells): 2.38 µM
